Values of other authors as cited in US9278101B2, “Ophthalmologic irrigation solutions and method” (Omeros Corporation, priority 2002, dated 2016).

Columns and labels:
[1] = system: non-adrenoceptor imidazoline binding sites
[2] = in vivo
[3] = system: alpha-1 receptor subtypes; conditions: three alpha-1 receptor subtypes

affinity for non-adrenoceptor imidazoline binding sites [1] | Compound | also measured
high affinity (nanomolar) | Brc1c(NC2=NCCN2)ccc2nccnc12 [UK14304, 5-bromo-N-(4,5-dihydro-1H-imidazol-2-yl)-6-quinoxalinamine] | 
high affinity (nanomolar) | Clc1cccc(Cl)c1N=C1NCCN1 [clonidine] | 
 | tropicamide | half-life [2]: 4 to 6 h
 | COc1cc2nc(N3CCN(C(=O)c4ccco4)CC3)nc(N)c2cc1OC [prazosin] | affinity for alpha-1 receptor subtypes [3]: high affinity (subnanomolar)
high affinity (nanomolar) | Cc1cc(C(C)(C)C)c(O)c(C)c1CC1=NCCN1 [oxymetazoline] | 
high affinity (nanomolar) | c1ccc2c(c1)OCC(C1=NCCN1)O2 (stereo not drawn) [idazoxan] | 
